Measurements as given in patent US20260275368A1, “COUMARIN SYNTHESIS AND USES THEREOF” (BASF SE, priority 2022, published 2026).

Key:
soybean plants = assay: Rating for plant health of T1 soybean plants; type: in vivo
Procedure: 12 T1 soybean plants per event and respective controls are potted and grown for 3-4 weeks in the phytochamber (16 h day-und 8 h-night-Rhythm at a temperature of 16° and 22° C. und a humidity of 75%) till the first 2 trifoliate leaves were fully expanded. A general rating of plant health is performed before (and partially after) the infection experiment. Only those plants are selected for inoculation that show, in general, a healthy phenotype. Healthy phenotype means normal growth habit, green, fully expanded green leaves, having no or only minor lesions, no obvious yellowing, leaf drop or other stress-associated phenotypes.

Phakopsora pachyrhizi = assay: Pathogen assay for soybean: susceptibility to soybean rust (diseased leaf area); type: in vivo, Phakopsora pachyrhizi on soybean
Procedure: 12 T1 soybean plants per event and respective controls are potted and grown for 3-4 weeks in the phytochamber (16 h day-und 8 h-night-Rhythm at a temperature of 16° and 22° C. und a humidity of 75%) till the first 2 trifoliate leaves were fully expanded.
The plants are inoculated with spores of P. pachyrhizi. In order to obtain appropriate spore material for the inoculation, soybean leaves, which are infected with rust 15-20 days ago, are taken 2-3 days before the inoculation and transferred to agar plates (1% agar in H2O). The leaves are placed with their upper side onto the agar, which allowed the fungus to grow through the tissue and to produce very young spores. For the inoculation solution, the spores are knocked off the leaves and are added to a Tween-H2O solution. The counting of spores is performed under a light microscope by means of a Thoma counting chamber. […]
The progression of the soybean rust disease is scored in percent by the estimation of the diseased area (area which was covered by sporulating uredinia) on the backside (abaxial side) of the leaf. […]
At all 11-12 T1 soybean plants per event and 5 independent events per construct were inoculated with spores of Phakopsora pachyrhizi. The macroscopic disease symptoms of soybean against P. pachyrhizi of the inoculated soybean plants were scored 14 days after inoculation. […]

[1] = transgenic soybean accumulating the coumarin, compared with WT

COc1cc2ccc(=O)oc2cc1O [Scopoletin, scopoletin, reference compound]
Germination rate (soybean plants; [1]): Slightly | first trifoliate leaf (soybean plants; [1]): some | growth phenotype (soybean plants; [1]): Smaller | older leaves (soybean plants; [1]): Yellowing of

COc1c(O)c(O)c2oc(=O)ccc2c1O [Sideretin, sideretin]
reduction of the diseased leaf area in comparison to non-transgenic control plants (Phakopsora pachyrhizi; 59 T1 soybean plants (5 events) accumulating sideretin by expressing S8H+CYP82C4, inoculated with P. pachyrhizi spores, scored 14 days after inoculation, p<0.01): 41% | increase of soybean rust resistance (Phakopsora pachyrhizi; accumulation of sideretin by expression of S8H and CYP82C4 (and F6H1 and CoSy) in T1 soybean, vs 18 wild type controls, 14 days after inoculation, p=0,009): 41% | Germination rate (soybean plants; in vivo): like WT | first trifoliate leaf (soybean plants; in vivo): like WT | growth phenotype (soybean plants; in vivo): like WT | older leaves (soybean plants; in vivo): Unclear
